# Results from ChEMBL document CHEMBL5325431, “Synthesis of thieno[3,2-e]pyrrolo[1,2-a]pyrimidine derivatives and their precursors containing 2-aminothiophenes fragments as anticancer agents for therapy of pulmonary metastatic melanoma” (Eur J Med Chem, 2023).
# Tests used:
# B16-F10 [1] = assay: Cytotoxicity against mouse B16-F10 cells assessed as cell survival incubated for 24 hrs by alamarblue staining based analysis; assay type: functional; conditions: B16-F10, 24 h
# [2] = Cytotoxicity against NF2-deficient mouse MEF cells assessed as cell survival incubated for 24 hrs by alamarblue staining based analysis; assay type: toxicity
# U-87 MG = assay: Cytotoxicity against human U-87 MG cells assessed as inhibition of cell growth; assay type: functional, cell-based, U-87MG ATCC
# HCT-116 = assay: Cytotoxicity against human HCT-116 cells assessed as inhibition of cell growth; assay type: functional, cell-based
# B16-F10 [3] = assay: Antitumor activity against metastatic mouse B16-F10 cells implanted in C57BL/6 mouse assessed as number of lung metastases at 9 to 9.5 mg/kg, ip administered for 12 days by histological analysis (reference value: 150 +/- 7); assay type: functional; conditions: dose 9-9.5 mg/kg, time 12 day
# B16-F10 [4] = assay: Antitumor activity against metastatic mouse B16-F10 cells implanted in C57BL/6 mouse assessed as number of lung metastases at 9 to 9.5 mg/kg, ip administered for 15 days by histological analysis (reference value: 175 +/- 10); assay type: functional; conditions: dose 9-9.5 mg/kg, time 15 day
# B16-F10 [5] = assay: Antitumor activity against metastatic mouse B16-F10 cells implanted in C57BL/6 mouse assessed as number of lung metastases at 9 to 9.5 mg/kg, ip administered for 19 days by histological analysis (reference value: 190 +/- 9); assay type: functional; conditions: dose 9-9.5 mg/kg, time 19 day
# B16-F10 [6] = assay: Antitumor activity against metastatic mouse B16-F10 cells implanted in C57BL/6 mouse assessed as number of lung metastases at 9 to 9.5 mg/kg, ip administered for 22 days by histological analysis (reference value: 223 +/- 12); assay type: functional; conditions: dose 9-9.5 mg/kg, time 22 day
# B16-F10 [7] = assay: Antitumor activity against metastatic mouse B16-F10 cells implanted in C57BL/6 mouse assessed as number of lung metastases at 4.6 to 42 mg/kg, ip administered every 3rd day for 22 days measured on day 23 by histological analysis (reference value: 223 +/- 12); assay type: functional; conditions: dose 4.6-42 mg/kg, time 23 day
# MCF7 = assay: Cytotoxicity against human MCF7 cells assessed as inhibition of cell growth; assay type: functional, cell-based
# JAR = assay: Cytotoxicity against human JAR cells assessed as inhibition of cell growth; assay type: functional, cell-based
SMILES,IC50 (B16-F10 [1]) [µM],IC50 at 24 h [2] [µM],further results
CCOC(=O)c1c(N2C(N)=C(C(N)=O)C(=O)/C2=C\C(=O)c2ccccc2)sc2c1CCCC2,52.1,> 100,
CCOC(=O)c1c(N)sc(C(=O)Nc2ccccc2)c1-c1ccccc1,,,IC50 (U-87 MG): 7.4 µM
CCOC(=O)C1=C(N)N(c2sc3c(c2C(=O)OCC)CCCCC3)/C(=C/C(=O)c2ccc(C)cc2)C1=O,25.2,> 100,
CCOC(=O)/C(C#N)=C(O)/C(=C/C(=O)c1ccccc1)Nc1sc2c(c1C(=O)OCC)CCCC2,38.6,> 100,
CCOC(=O)C1=C(N)N(c2sc3c(c2C(=O)OCC)CCCC3)/C(=C/C(=O)c2ccc(C)cc2)C1=O,68.4,> 100,
O=C(CSc1nc2sc3c(c2c(=O)n1Cc1ccccc1)CCCC3)NNC(=S)Nc1ccccc1,,,IC50 (HCT-116): 5.33 µM
CCOC(=O)/C(C#N)=C(O)/C(=C/C(=O)c1ccc(OC)cc1)Nc1sc2c(c1C(=O)OCC)CCCC2,19.7,> 100,
CCOC(=O)c1c(NC(=C\C(=O)c2ccc(C)cc2)/C(O)=C(\C#N)C(N)=O)sc(C)c1C,17.9,> 100,
CCOC(=O)C1=C2NC(=O)c3c(sc4c3CCCC4)N2/C(=C/C(=O)c2ccc(C)cc2)C1=O,40.5,> 100,
CCOC(=O)c1c(N/C(=C\C(=O)c2ccc(OC)cc2)C(O)=C(C#N)C#N)sc2c1CCCCC2,> 100,> 100,
CCOC(=O)c1c(N2C(N)=C(C(N)=O)C(=O)/C2=C\C(=O)c2ccccc2)sc2c1CCCCC2,22.2,> 100,
CCOC(=O)C1=C2NC(=O)c3c(sc(C)c3C)N2/C(=C/C(=O)c2ccc(Cl)cc2)C1=O,64.6,> 100,
CCOC(=O)C1=C(N)N(c2sc3c(c2C(=O)OCC)CCCC3)/C(=C/C(=O)c2cccs2)C1=O,57,> 100,
CCOC(=O)C1=C(N)N(c2sc(C)c(C)c2C(=O)OCC)/C(=C/C(=O)c2ccc(OC)cc2)C1=O,41.4,> 100,
CCOC(=O)c1c(N2C(N)=C(C(N)=O)C(=O)/C2=C\C(=O)c2ccc(OC)cc2)sc2c1CCCC2,48.1,> 100,
CCOC(=O)C1=C2NC(=O)c3c(sc4c3CCCC4)N2/C(=C/C(=O)c2ccc(Cl)cc2)C1=O,54.4,> 100,
CCOC(=O)c1c(NC(=C\C(=O)c2ccccc2)/C(O)=C(\C#N)C(N)=O)sc2c1CCCC2,14.1,> 100,
Cc1ccc(C(=O)/C=C2\C(=O)C(C#N)=C3NC(=O)c4c(sc5c4CCCCC5)N32)cc1,8.8,> 100,
COc1ccc(C(=O)/C=C2\C(=O)C(C(N)=O)=C3NC(=O)c4c(sc5c4CCCC5)N32)cc1,42.6,> 100,
CCOC(=O)C1=C(N)N(c2sc3c(c2C(=O)OCC)CCCC3)/C(=C/C(=O)c2ccc(OC)cc2)C1=O,> 100,> 100,
CCOC(=O)C1=C(N)N(c2sc3c(c2C(=O)OCC)CCCC3)/C(=C/C(=O)c2ccccc2)C1=O,46.7,> 100,
CCOC(=O)C1=C(N)N(c2sc3c(c2C(=O)OCC)CCCCC3)/C(=C/C(=O)c2ccccc2)C1=O,36.2,> 100,

SMILES,IC50 (B16-F10 [1]) [µM],IC50 at 24 h [2] [µM],further results
CCOC(=O)/C(C#N)=C(O)/C(=C/C(=O)c1ccc(C)cc1)Nc1sc(C)c(C)c1C(=O)OCC,44.2,> 100,
CCOC(=O)C1=C2NC(=O)c3c(sc(C)c3C)N2/C(=C/C(=O)c2ccc(C)cc2)C1=O,43.6,> 100,
CCOC(=O)c1c(N2C(N)=C(C(N)=O)C(=O)/C2=C\C(=O)c2ccc(OCC)cc2)sc2c1CCCC2,> 100,> 100,
CCOC(=O)C1=C(N)N(c2sc(C)c(C)c2C(=O)OCC)/C(=C/C(=O)c2ccccc2)C1=O,41.2,> 100,
CCOC(=O)c1c(N/C(=C\C(=O)c2ccc(OC)cc2)C(O)=C(C#N)C#N)sc2c1CCCC2,> 100,> 100,
NC(=O)C1=C2NC(=O)c3c(sc4c3CCCC4)N2/C(=C/C(=O)c2ccccc2)C1=O,56.9,> 100,
CCOC(=O)C1=C2NC(=O)c3c(sc4c3CCCC4)N2/C(=C/C(=O)c2cccs2)C1=O,58.6,> 100,
CCOC(=O)C1=C(N)N(c2sc(C)c(C)c2C(=O)OCC)/C(=C/C(=O)c2ccc(Cl)cc2)C1=O,57.3,> 100,
CCOC(=O)/C(C#N)=C(O)/C(=C/C(=O)c1ccc(C)cc1)Nc1sc2c(c1C(=O)OCC)CCCC2,28.9,> 100,
CCOC(=O)C1=C2NC(=O)c3c(sc4c3CCCC4)N2/C(=C/C(=O)c2ccc(OC)cc2OC)C1=O,32.6,> 100,
CCOC(=O)c1c(N/C(=C\C(=O)c2ccc(C)cc2)C(O)=C(C#N)C#N)sc2c1CCCCC2,> 100,> 100,
CCOC(=O)C1=C2NC(=O)c3c(sc4c3CCCC4)N2/C(=C/C(=O)c2ccccc2)C1=O,46.9,> 100,
CCOC(=O)C1=C(N)N(c2sc3c(c2C(=O)OCC)CCCC3)/C(=C/C(=O)c2ccc(OC)cc2OC)C1=O,54.1,> 100,
CC(=O)O[C@H]1C(=O)[C@@]2(C)[C@H]([C@H](OC(=O)c3ccccc3)[C@]3(O)C[C@H](OC(=O)[C@H](O)[C@@H](NC(=O)c4ccccc4)c4ccccc4)C(C)=C1C3(C)C)[C@]1(OC(C)=O)CO[C@@H]1C[C@@H]2O [PACLITAXEL],,,Activity (B16-F10 [3]): 158; Activity (B16-F10 [4]): 125; Activity (B16-F10 [5]): 97; Activity (B16-F10 [6]): 80; Activity (B16-F10 [7]): 50
CCOC(=O)c1c(N2C(N)=C(C(N)=O)C(=O)/C2=C\C(=O)c2ccc(OC)cc2OC)sc2c1CCCC2,48.2,> 100,
CCOC(=O)c1c(N2C(N)=C(C#N)C(=O)/C2=C\C(=O)c2ccc(OC)cc2)sc2c1CCCCC2,9.1,> 100,
CCOC(=O)c1c(N2C(N)=C(C(N)=O)C(=O)/C2=C\C(=O)c2ccc(Cl)cc2)sc2c1CCCC2,56.5,> 100,
CCOC(=O)c1c(NC(=C\C(=O)c2ccc(C)cc2)/C(O)=C(\C#N)C(N)=O)sc2c1CCCC2,11.9,> 100,
NC(=O)C1=C2NC(=O)c3c(sc4c3CCCCC4)N2/C(=C/C(=O)c2ccccc2)C1=O,24.5,> 100,
N#CC1=C2NC(=O)c3c(sc4c3CCCCCC4)N2/C(=C/C(=O)c2ccccc2)C1=O,12.6,> 100,
CCOC(=O)C1=C2NC(=O)c3c(sc4c3CCCCCC4)N2/C(=C/C(=O)c2ccccc2)C1=O,23.6,> 100,
CCOC(=O)C1=C(Nc2ccccc2)S/C(=C\C2CCCCC2)C1=O,,,IC50 (MCF7): 45.3 µM; IC50 (JAR): 95.2 µM
